According to patent US12441733B2, “Substituted 2,4-dioxotetrahydropyrimidines as intermediates in the synthesis of bruton's tyrosine kinase inhibitors” (Novartis AG, priority 2018, dated 2025):

Target: T1, BTK-GFP (Homo sapiens, UniProt Q06187+Q96SW2)
T1 construct: expressed in transfected cells; host or cells: HEK293A (Invitrogen R70507), lentiviral transduction with pLenti6-BTK-GFP-Ires-RFP, blasticidin selection
Assay: BTK-GFP protein abundance flow cytometry assay in HEK293A cells
Type: cell-based
Conditions: HEK293A BTK-GFP-iresRFP cells, 24 h; for DC50: GFP signal by flow cytometry, concentration at which 50% maximal degradation was observed; for BTK deg Amax: % protein remaining at the concentration at which maximum degradation is seen
Procedure, shortened: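 HEK293A cells stably expressing bicistronic BTK-GFP-IRES-RFP (C-terminal GFP tag) via lentiviral vector. Degradation read by flow cytometry as loss of GFP signal after degrader treatment. DC50 is concentration giving 50% maximal degradation; Amax is % protein remaining at maximal degradation.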

T1 sequence (Q06187 whole entry): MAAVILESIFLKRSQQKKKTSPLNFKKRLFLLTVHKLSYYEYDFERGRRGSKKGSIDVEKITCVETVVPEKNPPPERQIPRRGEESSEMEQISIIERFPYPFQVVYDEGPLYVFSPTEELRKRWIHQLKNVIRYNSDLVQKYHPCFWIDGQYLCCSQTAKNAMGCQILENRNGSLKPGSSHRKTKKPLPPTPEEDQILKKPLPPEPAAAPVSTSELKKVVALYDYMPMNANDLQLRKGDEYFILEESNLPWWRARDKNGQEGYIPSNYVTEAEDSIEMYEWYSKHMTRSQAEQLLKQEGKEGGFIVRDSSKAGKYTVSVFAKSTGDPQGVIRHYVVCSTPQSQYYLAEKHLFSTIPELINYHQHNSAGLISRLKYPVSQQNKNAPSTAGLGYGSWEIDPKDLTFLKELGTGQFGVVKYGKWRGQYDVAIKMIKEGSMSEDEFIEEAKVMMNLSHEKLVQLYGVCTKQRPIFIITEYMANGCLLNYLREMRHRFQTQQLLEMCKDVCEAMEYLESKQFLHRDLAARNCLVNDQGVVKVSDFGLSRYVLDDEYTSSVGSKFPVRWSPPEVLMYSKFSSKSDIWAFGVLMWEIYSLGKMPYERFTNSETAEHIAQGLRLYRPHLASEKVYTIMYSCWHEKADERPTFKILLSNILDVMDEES
T1 sequence (Q96SW2 whole entry): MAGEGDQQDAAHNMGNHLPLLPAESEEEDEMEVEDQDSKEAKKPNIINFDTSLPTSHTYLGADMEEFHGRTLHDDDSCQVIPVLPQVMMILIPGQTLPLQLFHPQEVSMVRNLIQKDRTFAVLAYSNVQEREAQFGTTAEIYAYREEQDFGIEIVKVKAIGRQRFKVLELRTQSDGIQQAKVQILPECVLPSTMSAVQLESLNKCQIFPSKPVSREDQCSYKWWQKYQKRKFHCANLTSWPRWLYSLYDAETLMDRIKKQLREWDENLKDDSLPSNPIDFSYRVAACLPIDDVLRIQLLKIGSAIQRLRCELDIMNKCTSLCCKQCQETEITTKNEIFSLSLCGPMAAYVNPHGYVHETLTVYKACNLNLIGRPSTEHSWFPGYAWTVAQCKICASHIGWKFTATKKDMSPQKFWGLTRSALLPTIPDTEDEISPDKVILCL
T1 sequence (Q16531 whole entry partner): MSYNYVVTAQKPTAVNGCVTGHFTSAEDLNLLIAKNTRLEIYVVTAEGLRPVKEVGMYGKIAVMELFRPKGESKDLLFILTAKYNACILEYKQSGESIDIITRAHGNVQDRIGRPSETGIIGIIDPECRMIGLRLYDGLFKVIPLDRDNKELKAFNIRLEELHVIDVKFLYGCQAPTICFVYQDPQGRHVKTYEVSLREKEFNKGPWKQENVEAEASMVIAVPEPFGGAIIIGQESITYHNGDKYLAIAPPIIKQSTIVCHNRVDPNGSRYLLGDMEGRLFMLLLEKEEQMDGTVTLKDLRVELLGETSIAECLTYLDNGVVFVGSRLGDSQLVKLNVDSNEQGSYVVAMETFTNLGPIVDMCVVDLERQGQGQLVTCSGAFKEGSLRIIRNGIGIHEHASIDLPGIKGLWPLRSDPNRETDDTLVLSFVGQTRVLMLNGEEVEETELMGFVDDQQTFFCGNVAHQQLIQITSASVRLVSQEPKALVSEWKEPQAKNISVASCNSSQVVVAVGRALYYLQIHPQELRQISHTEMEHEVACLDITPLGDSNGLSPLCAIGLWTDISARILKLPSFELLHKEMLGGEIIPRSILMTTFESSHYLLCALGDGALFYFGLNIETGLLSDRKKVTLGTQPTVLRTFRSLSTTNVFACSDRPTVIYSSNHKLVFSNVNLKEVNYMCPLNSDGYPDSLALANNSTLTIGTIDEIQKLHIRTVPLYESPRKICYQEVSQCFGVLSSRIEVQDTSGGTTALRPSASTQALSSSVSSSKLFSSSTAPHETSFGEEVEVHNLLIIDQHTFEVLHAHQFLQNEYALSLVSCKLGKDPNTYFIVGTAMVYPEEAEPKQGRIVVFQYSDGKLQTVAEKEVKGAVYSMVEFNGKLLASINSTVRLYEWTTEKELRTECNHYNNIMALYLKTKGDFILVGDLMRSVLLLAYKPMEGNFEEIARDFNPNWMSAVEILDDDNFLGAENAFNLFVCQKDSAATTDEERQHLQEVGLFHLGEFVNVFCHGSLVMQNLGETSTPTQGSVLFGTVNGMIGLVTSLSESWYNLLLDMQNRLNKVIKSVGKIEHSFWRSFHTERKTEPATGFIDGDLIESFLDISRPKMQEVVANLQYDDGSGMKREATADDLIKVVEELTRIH

| SMILES | DC50 [nM] | BTK deg Amax [%] |
| --- | --- | --- |
| Cc1c(NC(=O)c2ccc(C(C)(C)O)cc2F)cc(F)cc1-c1ncnc2[nH]c(-c3ccc(COC4CCN(CCC5CCN(C(=O)c6ccc(F)c(N7CCC(=O)NC7=O)c6)CC5)CC4)cc3)cc12 [Compound 6, N-(3-(6-(4-(((1-(2(1-(3-(2,4-dioxotetrahydropyrimidin-1(2H)-yl)-4-fluorobenzoyl)piperidin-4-yl)ethyl)piperidin-4-yl)oxyl)methyl)phenyl)-7H-pyrrolo[2,3-d]pyrimidin-4-yl)-5-fluoro-2-methylphenyl)-2-fluoro-4-(2-hydroxypropan-2-yl)benzamide] | 0.7 | 4.1 |
| COc1ccc(C(=O)N2CCN(CCCCNCc3ccc(-c4cc5c(-c6cc(F)cc(NC(=O)c7ccc(C(C)(C)O)cc7F)c6C)ncnc5[nH]4)cc3)CC2)cc1N1CCC(=O)NC1=O [Compound 40, N-(3-(6-(4-(((4-(4-(3-(2,4-dioxotetrahydropyrimidin-1(2H)-yl)-4-methoxybenzoyl)piperazin-1-yl)butyl)amino)methyl)phenyl)-7H-pyrrolo[2,3-d]pyrimidin-4-yl)-5-fluoro-2-methylphenyl)-2-fluoro-4-(2-hydroxypropan-2-yl)benzamide] | 53.2 | 4.6 |
| COc1ccc(C(=O)NCCN2CCC3(CC2)CCN(Cc2ccc(-c4cc5c(-c6cc(F)cc(NC(=O)c7ccc(C(C)(C)O)cc7F)c6C)ncnc5[nH]4)cc2)CC3)cc1N1CCC(=O)NC1=O [Compound 44, N-(3-(6-(4-((9-(2-(3-(2,4-dioxotetrahydropyrimidin-1(2H)-yl)-4-methoxybenzamido)ethyl)-3,9-diazaspiro[5.5]undecan-3-yl)methyl)phenyl)-7H-pyrrolo[2,3-d]pyrimidin-4-yl)-5-fluoro-2-methylphenyl)-2-fluoro-4-(2-hydroxypropan-2-yl)benzamide] | 235 | 48.4 |
| Cc1cc(F)c(C(=O)NCCCCCNCc2ccc(-c3cc4c(-c5cc(F)cc(NC(=O)c6ccc(C(C)(C)O)cc6F)c5C)ncnc4[nH]3)cc2)cc1N1CCC(=O)NC1=O [Compound 29, 5-(2,4-Dioxotetrahydropyrimidin-1(2H)-yl)-2-fluoro-N—(S-((4-(4-(5-fluoro-3-(2-fluoro-4-(2-hydroxypropan-2-yl)benzamido)-2-methylphenyl)-7H-pyrrolo[2,3-d]pyrimidin-6-yl)benzyl)amino)pentyl)-4-methylbenzamide] | 19.9 | 3.1 |
| Cc1c(NC(=O)c2ccc(C(C)(C)O)cc2F)cc(F)cc1-c1ncnc2[nH]c(-c3ccc(CCN4CCC5(CC4)CCN(C(=O)c4ccc(F)c(N6CCC(=O)NC6=O)c4)CC5)cc3)cc12 [Compound 47, N-(3-(6-(4-(2-(9-(3-(2,4-dioxotetrahydropyrimidin-1(2H)-yl)-4-fluorobenzoyl)-3,9-diazaspiro[5.5]undecan-3-yl)ethyl)phenyl)-7H-pyrrolo[2,3-d]pyrimidin-4-yl)-5-fluoro-2-methylphenyl)-2-fluoro-4-(2-hydroxypropan-2-yl)benzamide] | 2.2 | 6.7 |
| COc1ccc(C(=O)N2CCC(OC3CCN(Cc4ccc(-c5cc6c(-c7cc(F)cc(NC(=O)c8ccc(C(C)(C)O)cc8F)c7C)ncnc6[nH]5)cc4)CC3)CC2)cc1N1CCC(=O)NC1=O [Compound 8, N-(3-(6-(4-((4-((1-(3-(2,4-dioxotetrahydropyrimidin-1(2H)-yl)-4-methoxybenzoyl)piperidin-4-yl)oxyl)piperidin-1-yl)methyl)phenyl)-7H-pyrrolo[2,3-d]pyrimidin-4-yl)-5-fluoro-2-methylphenyl)-2-fluoro-4-(2-hydroxypropan-2-yl)benzamide] | 2.6 | 5.5 |
| CCOc1ccc(C(=O)N2CCC3(CCN(Cc4ccc(-c5cc6c(-c7cc(F)cc(NC(=O)c8ccc(C(C)(C)O)cc8F)c7C)ncnc6[nH]5)cc4)CC3)CC2)cc1N1CCC(=O)NC1=O [Compound 4, N-(3-(6-(4-((9-(3-(2,4-Dioxotetrahydropyrimidin-1(2H)-yl)-4-ethoxybenzoyl)-3,9-diazaspiro[5.5]undecan-3-yl)methyl)phenyl)-7H-pyrrolo[2,3-d]pyrimidin-4-yl)-5-fluoro-2-methylphenyl)-2-fluoro-4-(2-hydroxypropan-2-yl)benzamide] | 3.7 | 7.8 |
| COc1ccc(C(=O)NCCN2CCOC3(CCN(Cc4ccc(-c5cc6c(-c7cc(F)cc(NC(=O)c8ccc(C(C)(C)O)cc8F)c7C)ncnc6[nH]5)cc4)CC3)C2)cc1N1CCC(=O)NC1=O [Compound 39, N-(3-(6-(4-((4-(2-(3-(2,4-dioxotetrahydropyrimidin-1(2H)-yl)-4-methoxybenzamido)ethyl)-1-oxa-4,9-diazaspiro[5.5]undecan-9-yl)methyl)phenyl)-7H-pyrrolo[2,3-d]pyrimidin-4-yl)-5-fluoro-2-methylphenyl)-2-fluoro-4-(2-hydroxypropan-2-yl)benzamide] | 149 | 12.7 |

Other lines, results leading:

| DC50 [nM] | BTK deg Amax [%] | SMILES |
| --- | --- | --- |
| 23.7 | 6.5 | COc1ccc(C(=O)N2CCN(C(=O)N3CCN(Cc4ccc(-c5cc6c(-c7cc(F)cc(NC(=O)c8ccc(C(C)(C)O)cc8F)c7C)ncnc6[nH]5)cc4)CC3)CC2)cc1N1CCC(=O)NC1=O [Compound 22, N-(3-(6-(4-((4-(4-(3-(2,4-Dioxotetrahydropyrimidin-1(2H)-yl)-4-methoxybenzoyl)piperazine-1-carbonyl)piperazin-1-yl)methyl)phenyl)-7H-pyrrolo[2,3-d]pyrimidin-4-yl)-5-fluoro-2-methylphenyl)-2-fluoro-4-(2-hydroxypropan-2-yl)benzamide] |
| 1 | 3.1 | Cc1ccc(C(=O)N2CCC3(CCN(CCc4ccc(-c5cc6c(-c7cc(F)cc(NC(=O)c8ccc(C(C)(C)O)cc8F)c7C)ncnc6[nH]5)cc4)CC3)CC2)cc1N1CCC(=O)NC1=O [Compound 5, N-(3-(6-(4-(2-(9-(3-(2,4-Dioxotetrahydropyrimidin-1(2H)-yl)-4-methylbenzoyl)-3,9-diazaspiro[5.5]undecan-3-yl)ethyl)phenyl)-7H-pyrrolo[2,3-d]pyrimidin-4-yl)-5-fluoro-2-methylphenyl)-2-fluoro-4-(2-hydroxypropan-2-yl)benzamide] |
| 47.1 | 5.4 | Cc1ccc(C(=O)N(C)CCCCCNCc2ccc(-c3cc4c(-c5cc(F)cc(NC(=O)c6ccc(C(C)(C)O)cc6F)c5C)ncnc4[nH]3)cc2)cc1N1CCC(=O)NC1=O [Compound 30, 3-(2,4-Dioxotetrahydropyrimidin-1(2H)-yl)-N-(5-((4-(4-(5-fluoro-3-(2-fluoro-4-(2-hydroxypropan-2-yl)benzamido)-2-methylphenyl)-7H-pyrrolo[2,3-d]pyrimidin-6-yl)benzyl)amino)pentyl)-N,4-dimethylbenzamide] |
| 2.5 | 3.4 | COc1ccc(C(=O)N2CCC3(CCN(CCc4ccc(-c5cc6c(-c7cc(F)cc(NC(=O)c8ccc(C(C)(C)O)cc8F)c7C)ncnc6[nH]5)cc4)CC3)CC2)cc1N1CCC(=O)NC1=O [Compound 31, N-(3-(6-(4-(2-(9-(3-(2,4-Dioxotetrahydropyrimidin-1(2H)-yl)-4-methoxybenzoyl)-3,9-diazaspiro[5.5]undecan-3-yl)ethyl)phenyl)-7H-pyrrolo[2,3-d]pyrimidin-4-yl)-5-fluoro-2-methylphenyl)-2-fluoro-4-(2-hydroxypropan-2-yl)benzamide] |
